# Results: US20240052133A1, “CHEMICAL RECYLING OF PLASTICS USING IONIC LIQUIDS OR DEEP EUTECTIC SOLVENTS” (THE REGENTS OF THE UNIVERSITY OF CALIFORNIA, priority 2022, published 2024)
# Read-outs that look alike come from different tables or passages of the source.
# Tests used:
# [1] = test system: Pseudomonas putida KT2440; assay: Pseudomonas putida KT2440 cell growth test (OD600) with different carbon sources; type: cell-based; conditions: for cell growth (cell concentration): synthetic solutions matching concentrations in the depolymerized polymers, versus 10 mM glucose control
# Experimental: [38, 39, 44, 45]. […] This is likely due to the relatively high [Ch][Lys] concentration, where the [Ch][Lys] concentration is 4 wt %.
# Due to the fact that the depolymerized PET/PLA comprises multiple carbon sources (e.g., TPA, LA, and [Ch][Lys]), it is essential to identify the major contributors for the cell growth. Two additional tests were performed. […] The depolymerized products were then diluted 20-fold to prepare the media for cell growth test. A media prepared with only [Ch][Lys] was used as the IL control.
# To validate this hypothesis, a second cell growth test was conducted using synthetic TPA and LA as the media. TPA, LA, and TPA/LA mixture were prepared to match the concentrations in the depolymerized polymers. […] It can be concluded that Pseudomonas putida KT2440 is capable of catabolizing LA from depolymerized PLA and [Ch][Lys] as carbon sources, but lacks a natural metabolic pathway to consume TPA. So far, no natural terephthalate degradation pathway has been reported in Pseudomonas putida KT2440. This is consistent with our findings that TPA cannot support cell growth of Pseudomonas putida KT2440. A recent study has shown the success in engineering Pseudomonas putida KT2440 to catabolize TPA for different fermentation products. This opens the door to efficiently utilizing both TPA and LA from the depolymerized PET/PLA.
# Pseudomonas putida KT2440 was inoculated as the seed culture at 30° C. overnight. The cell culture was spun down and washed with 3-(N-morpholino)propane sulfonic acid (MOPS) buffer for 5 times to remove the carbon sources. 1% cell resuspension was inoculated into 500 μL growth media in 48 well plates. The growth media included MOPS rich buffer (Teknova, #M2105) and 25 μg/mL Chloramphenicol, added with different carbon sources to support the cell growth (Table 4). Cell growths were monitored continuously at OD600 nm for 72-120 h in the plate reader (Biotek-Synergy, Y-H1) at 30° C., 570 rpm.
# [2] = cited from earlier work
# [3] = pH of the reaction solution before and after IL catalyzed depolymerization; type: physicochemical; conditions: for pH before reaction: IL systems 10 wt % in water, alkaline water adjusted with NaOH; for pH after reaction, PET: after depolymerization reaction of PET; for pH after reaction, PLA: after depolymerization reaction of PLA
# Experimental: Hydrolytic depolymerization of PET and PLA involves chain scission of ester linkages, where a carboxyl end group is released. […] We hypothesized that the pH influenced by IL was the major driving force of PET and PLA depolymerization. To test the hypothesis, a set of control experiments were conducted using only water and alkaline water as the solvent. […] (with pH 11.8).
# [4] = Hydrolytic depolymerization of PET using ILs in water
# Experimental: (§1) Most of them are conventional imidazolium-based, including the ones that contain halometallates. With the progress in the IL research, economic and biocompatible cholinium-based ILs have attracted high interest.
# (§2) […] […] The tube was immersed in a preheated oil bath at a desired temperature. Upon completion of the reaction, the tube was taken out from the oil bath and cooled to room temperature.
# The reaction residue was transferred to a 50 mL falcon tube, where solid residue was recovered through centrifugation. The solid fraction was washed with 5 mL deionized water three times before being dried in a lyophilizer (Labconco, Kansas City, MO). The liquid fraction was sampled for product analysis. The depolymerization and product yield are defined as follows:
# (§3) Depolymerization=Wsubstrate−W1Wsubstrate100%
# (§4) Yield=Wproduct/MproductWsubstrate/Msubstrate×100%
# (§5) Then 4 mM sulfuric acid was used as the mobile phase at a flow rate of 1.0 mL/min. The column oven temperature was maintained at 65° C.
# [5] = Hydrolytic depolymerization of PLA using ILs in water
# Experimental: as §1, §2
# (§6) The reaction residue was transferred to a 50 mL falcon tube, where solid residue was recovered through centrifugation. […] The liquid fraction was sampled for product analysis. The depolymerization and product yield are defined as follows:
# as §3, §4, §5
# [6] = Depolymerization of PET/PLA mixtures (1:1 mass ratio) using [Ch][Lys]; conditions: 160° C.
# From the text: As discussed previously, the current waste management facilities will not completely eliminate the PLA contamination when sorting PET for recycling. […] Chemical recycling is an alternative to mechanical recycling in regard to dealing with PLA contaminants. […] Given its high catalytic activity, [Ch][Lys] was selected as the IL in the reaction. It should be emphasized that [Ch][Lys] is a favorable choice not only because of its high depolymerization efficiency but also because it is economic, biocompatible, less toxic, and environmentally friendly.
# The initial set of experiments was carried out at 160° C. for two hours. As shown in FIG. 4A and FIG. 4B, the depolymerization efficiency varied across different IL loadings. […] Meanwhile, the TPA yield turned to be negligible (1.5%) and the LA yield was merely 40.9%. The reasons are manifold.
# Although [Ch][Lys] is considered as cost-competitive compared to other conventional ILs, IL usage is often the major cost contributor in the process economics. In order to explore the way to reduce IL loading, a set of experiments was conducted by increasing the reaction time from 2 h to 6 h. Overall, reaction time extension improved both depolymerization and product yields at low IL loadings (FIG. 4A, FIG. 4B and FIG. 4C). […].
# The depolymerization reaction of polyesters were conducted in a 15 mL pressure tube (Ace Glass Inc., Vineland, NJ) at […] for one hour. […] The tube was immersed in a preheated oil bath at a desired temperature. Upon completion of the reaction, the tube was taken out from the oil bath and cooled to room temperature.
# as §6, §3, §4
# Terephthalic acid (TPA) and lactic acid (LA) were measured on a Thermo Scientific Ultimate 3000 HPLC (Waltham, MA, USA) equipped with a Bio-Rad Aminex HPX-87H column (300×7.8 mm, Hercules, CA, USA) and a Refractive Index (RI) detector. Then 4 mM sulfuric acid was used as the mobile phase at a flow rate of 1.0 mL/min. The column oven temperature was maintained at 65° C.
# [7] = 160° C., 20% [Ch][Lys] loading, 6 hours
# [8] = 180° C., 2 hours, 10% IL in water
# [9] = 130° C., 2 hours, 10% IL in water
# [10] = 90 wt % IL loading (no water), 2 h
compound,measurement,setting,value
"CC(O)C(=O)O (stereo not drawn) [LA, lactic acid]",cell growth (cell concentration),[1],higher than glucose control
"O=C(O)c1ccc(C(=O)O)cc1 [TPA, terephthalic acid]",cell growth (cell concentration),[1],No cell growth was observed
same,solubility in water,[2]; acidic pH,insoluble
same,solubility in water,[2]; alkaline conditions,water soluble
O [Water],pH before reaction,[3],7.6
same,"pH after reaction, PET",[3],3.4
same,"pH after reaction, PLA",[3],3.4
"C[N+](C)(C)CCO.C[N+](C)(C)CCO.C[N+](C)(C)CCO.O=P([O-])([O-])[O-] [[Ch]3[Phos], cholinium phosphate]",pH before reaction,[3],12.7
same,"pH after reaction, PET",[3],7.7
same,"pH after reaction, PLA",[3],8.1
"C[N+](C)(C)CCO.NCCCC[C@H](N)C(=O)[O-] [[Ch][Lys], cholinium lysinate]",depolymerization of PET,[4]; [7],Up to 100%
same,TPA yield (product yield from PET),[4]; [8],44.5%
same,depolymerization efficiency of PET,[4]; [8],52.7%
same,LA yield (product yield from PLA),[5]; [9],39.3%
same,depolymerization efficiency of PLA,[5]; [9],40.2%
same,depolymerization of PLA,[5]; [7],Up to 100%
same,depolymerization efficiency of PET/PLA mixture,"[6]; 10 wt % IL loading, 2 h",50.8%
same,LA yield from PET/PLA mixture,"[6]; 45 wt % IL loading, 2 h",93.8%
same,TPA yield from PET/PLA mixture,"[6]; 45 wt % IL loading, 2 h",79.6%
same,LA yield from PET/PLA mixture,"[6]; 60 wt % IL loading, 2 h",53.1%
same,TPA yield from PET/PLA mixture,"[6]; 60 wt % IL loading, 2 h",77.2%
same,depolymerization efficiency of PET/PLA mixture,"[6]; 60 wt % IL loading, 2 h",99.5%
same,LA yield from PET/PLA mixture,[6]; [10],40.9%
same,TPA yield from PET/PLA mixture,[6]; [10],1.5%
same,depolymerization efficiency of PET/PLA mixture,[6]; [10],91.5%
same,"LA yield from PET/PLA mixture, change versus 2 h","[6]; 90 wt % IL loading, 6 h",decreased by half
same,TPA yield from PET/PLA mixture,"[6]; 90 wt % IL loading, 6 h",1.6%
same,depolymerization of PET/PLA mixture,"[6]; 90 wt % IL loading, 6 h",97.1%
same,pH before reaction,[3],11.8
same,"pH after reaction, PET",[3],11.0
same,"pH after reaction, PLA",[3],11.1
same,cell growth,[1]; media prepared with only [Ch][Lys] (IL control),contributor to the cell growth
"C[N+](C)(C)CCO.O=C([O-])[C@H](O)[C@@H](O)[C@H](O)[C@H](O)CO [[Cholinium][Gluconate], cholinium gluconate]",TPA yield higher over [Ch][Lys],"[4]; another experiment, PET depolymerization",100%
"CCn1cc[n+](C)c1.[Cl-] [[Emim]Cl, 1-ethyl-3-methylimidazolium chloride]",pH before reaction,[3],6.4
same,"pH after reaction, PET",[3],4.5
same,"pH after reaction, PLA",[3],3.2
"CC(=O)[O-].CCn1cc[n+](C)c1 [[Emim][Ac], 1-ethyl-3-methylimidazolium acetate]",pH before reaction,[3],7.1
same,"pH after reaction, PET",[3],6.8
same,"pH after reaction, PLA",[3],7.2
